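Where inhibition never reached the appropriate level, the endpoint shown equals the highest concentration tested. Otherwise, values were interpolated linearly from a five-concentration, 48-hour dose response in 96-well plates. GI50 = concentration required for 50% inhibition of growth.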 Active and inactive are the calls of the source. Cut-off read from the data, not from the text of the source: active = GI50 up to about 1.1 µM and inactive = higher.
Experiments:
Assay in all cases: DTP human tumour cell line panel, 48 h
[1] = tested on: LXFL 529
[2] = tested on: HOP-18
[3] = tested on: DMS-273
[4] = tested on: SNB-78
[5] = tested on: DLD-1
[6] = tested on: DMS-114
[7] = tested on: M19-MEL
[8] = tested on: XF498
[9] = tested on: RXF 631

Measured: GI50

CC(C)(c1ccccc1)c1ccc(OC#N)cc1
inactive: [1] > 78.3 µM | [2] > 100 µM | [3] 17 µM | [4] > 100 µM | [5] > 44.5 µM | [6] 28.4 µM | [7] > 60.1 µM | [8] 44.6 µM

CC(=O)OC(CCC1(C)OC1COc1ccc(CCNC(=O)c2ccccc2)cc1)C(C)(C)OC(C)=O (configuration not stated)
inactive: [1] 10.3 µM | [2] > 100 µM | [3] 11 µM | [4] 36.2 µM | [5] 45 µM | [7] 18.4 µM
active: [6] 0.325 µM

NC(CCCNc1cccc(O)c1)C(=O)O (configuration not stated)
inactive: [1] > 100 µM | [2] > 100 µM | [3] > 100 µM | [4] > 100 µM | [5] > 100 µM | [6] > 100 µM | [7] > 100 µM

O=c1ccn([C@@H]2C[C@H](CO)C[S+]([O-])C2)c(=O)[nH]1 (some centres not stated)
inactive: [1] > 100 µM | [2] > 100 µM | [3] > 100 µM | [5] > 100 µM | [6] > 100 µM | [7] > 100 µM

CCCC1C(=O)CCc2c(OC)ccc(OC)c21 (configuration not stated)
inactive: [1] > 100 µM | [2] 2.61 µM | [3] > 100 µM | [4] > 100 µM | [5] > 100 µM | [6] 48.2 µM | [7] > 100 µM | [8] > 100 µM

COc1cc([C@@H]2c3cc4c(cc3C(N)C3COC(=O)[C@@H]32)OCO4)cc(OC)c1O (some centres not stated)
inactive: [2] > 100 µM
active: [1] 0.117 µM | [5] 0.377 µM | [6] 0.245 µM | [7] 0.334 µM | [9] 0.178 µM

CC1CCN(CCC(=O)CC(c2ccccc2)c2c(O)c3ccccc3oc2=O)CC1 (configuration not stated)
inactive: [3] > 100 µM | [4] 34.4 µM | [5] > 100 µM | [6] > 100 µM | [7] > 100 µM | [8] > 100 µM | [9] > 100 µM

C=C[C@@]1(O)CCCC2=C(C(=O)OCC)CC[C@]21C
inactive: [1] > 100 µM | [2] 99.8 µM | [3] 37.5 µM | [5] > 100 µM | [6] 44 µM | [7] > 100 µM

COC(=O)c1cc(-c2ccc(OC)c(OC)c2)oc1-c1ccc(OC)c(OC)c1
inactive: [1] 27.7 µM | [2] 29.2 µM | [3] 67.1 µM | [4] 31.7 µM | [5] 30.1 µM | [6] 31.9 µM | [7] 41.3 µM | [8] 37.3 µM | [9] 30.5 µM

COc1cccc2c1C(=O)c1c(O)c3c(c(O)c1C2=O)C[C@@](O)(C(C)=O)C[C@@H]3OC1CC([N+]([O-])(Cc2ccccc2)Cc2ccccc2)C(O)C(C)O1 (some centres not stated)
active: [1] 1.11 µM | [9] 0.428 µM
inactive: [2] 1.58 µM | [5] 1.29 µM | [6] 1.33 µM | [7] 1.43 µM | [8] 1.23 µM

COc1cc2c(cc1O)[C@@]1(Cc3ccc(OC)c(OC)c3)CCC(=O)N1CC2
inactive: [1] > 100 µM | [2] 31.3 µM | [3] > 100 µM | [4] > 100 µM | [5] > 100 µM | [6] > 100 µM | [7] > 100 µM

CN1C(=O)C(=O)c2cc3c(c4c2c1cc1ccccc14)OCO3 [CEPHARADIONE A]
inactive: [1] 30.8 µM | [2] 42.9 µM | [3] 22.9 µM | [4] 7.83 µM | [5] 31.2 µM | [6] 31.6 µM | [7] 28.4 µM | [8] > 100 µM

O=C1CCCN(c2ccccc2)N1
inactive: [1] > 100 µM | [3] > 100 µM | [6] > 100 µM | [7] > 100 µM | [9] > 100 µM

CC(C)Cc1cc(CCC(=O)Nc2ccccc2[N+](=O)[O-])nc(NC#N)n1
inactive: [1] > 100 µM | [2] > 100 µM | [5] > 100 µM | [6] > 100 µM | [7] > 100 µM | [8] > 100 µM

CC1(C)C(c2ccccc2)=NN(O)c2ccccc21
inactive: [1] > 100 µM | [2] > 100 µM | [3] > 100 µM | [4] > 100 µM | [5] > 100 µM | [7] > 100 µM

Cc1ccc(/C=C/C(=O)CCN(C)C)cc1
inactive: [1] 19.4 µM | [2] 20.7 µM | [3] 13 µM | [4] 28.6 µM | [5] 18.1 µM | [6] 18.3 µM | [7] 19.7 µM | [8] 14.2 µM

C/C(=N/O)C1CC=C(S(=O)(=O)c2ccccc2)C1 (configuration not stated)
inactive: [1] > 100 µM | [3] > 100 µM | [5] > 100 µM | [7] > 100 µM

COc1cc(C)c(O)c(C(=O)O)c1
inactive: [1] > 100 µM | [2] > 100 µM | [3] > 100 µM | [4] > 100 µM | [5] > 100 µM | [6] > 100 µM | [7] > 100 µM | [8] > 100 µM

Cc1nc(N)sc1C(=O)/C=C\c1ccc2c(c1)OCO2
inactive: [1] > 100 µM | [2] > 100 µM | [3] > 100 µM | [4] > 100 µM | [5] > 100 µM | [6] > 100 µM | [7] > 100 µM | [8] > 100 µM | [9] > 100 µM

Cc1cc(C)c(C2[C@H]3C(=O)N(c4ccc(Cc5ccc(N6C(=O)[C@@H]7ON(c8ccccc8)C(c8c(C)cc(C)cc8C)[C@@H]7C6=O)cc5)cc4)C(=O)[C@H]3ON2c2ccccc2)c(C)c1 (some centres not stated)
inactive: [1] > 100 µM | [2] > 100 µM | [3] > 100 µM | [4] > 100 µM | [5] > 100 µM | [6] > 100 µM | [7] > 100 µM | [9] > 100 µM

O=C1c2ccccc2C2CCC1c1ccccc12 (configuration not stated)
inactive: [1] 36.3 µM | [2] 73.6 µM | [3] 27.4 µM | [4] 29.9 µM | [5] 33.5 µM | [6] 19.4 µM | [7] 25.6 µM | [8] 29.5 µM

N#C/C(=C\c1ccc(CP(=O)(O)O)cc1)C(N)=O
inactive: [1] > 100 µM | [2] > 100 µM | [3] > 100 µM | [5] > 100 µM | [6] > 100 µM | [7] > 100 µM | [8] > 100 µM

O=C1C(=Cc2ccc([N+](=O)[O-])o2)C(=O)N(CCc2ccccc2)S(=O)(=O)N1CCc1ccccc1
inactive: [1] 16.8 µM | [2] 42.2 µM | [3] 32.7 µM | [4] 26.1 µM | [5] 17.6 µM | [7] 17.7 µM | [8] 20.4 µM

COc1cc2c[n+](C)c3c4cc(OC)c(OC)cc4c(OCCCCCCCCOc4cc5c6cc(OC)c(OC)cc6c[n+](C)c5c5cc(OC)c(OC)cc45)cc3c2cc1OC
inactive: [1] > 100 µM | [2] > 100 µM | [3] 20 µM | [4] > 100 µM | [5] > 100 µM | [6] 22.1 µM | [7] 53.1 µM | [8] > 100 µM

COC(=O)C(C#N)=C1c2ccccc2Oc2ccccc21
inactive: [1] 29.8 µM | [3] > 100 µM | [4] 28.6 µM | [5] > 100 µM | [6] 32.7 µM | [7] 60.1 µM | [8] > 100 µM
